Test results taken from ChEMBL document CHEMBL5385929, “Tabersonine Enhances Olaparib Sensitivity through FHL1-Mediated Epithelial-Mesenchymal Transition in an Ovarian Tumor” (J Nat Prod, 2024).
Calls of active or inactive are those of the source. The calls are words filed in the database; no cut-off is given here.

Tests used:
A2780 [1] = assay: Potentiation of olaparib sensitivity in human A2780 cells transfected with shFLH1-2 RNA assessed as downregulation of EMT signaling by measuring vimentin protein expression at 10 uM in presence of olaparib by western blot analysis; type: functional, cell-based
A2780 [2] = assay: Upregulation of FHL1 protein expression in human A2780 cells by western blot analysis; type: functional, cell-based; conditions: dose 5-20 µM
SK-OV-3 [3] = assay: Potentiation of olaparib sensitivity in human SK-OV-3 cells assessed as downregulation of EMT signaling by measuring downregulation of vimentin protein expression at 10 uM in presence of olaparib by western blot analysis; type: functional, cell-based
Mus musculus [4] = assay: Potentiation of olaparib sensitivity in BALB/c mouse xenografted with shNC RNA-transfected human A2780 cells assessed as increase in FHL1 protein expression in tumor at 15 mg/kg, ip co-administered with olaparib for 2 weeks by immunohistochemistry; type: functional, organism-based
A2780 [5] = assay: Downregulation of EMT signalling in human A2780 cells assessed as downregulation of vimentin protein expression at 10 uM by western blot analysis; type: functional, cell-based
A2780 [6] = assay: Potentiation of olaparib sensitivity in human A2780 cells transfected with shFHL1-2 RNA assessed as inhibition of cell invasion at 10 uM measured after 48 hrs in presence of olaparib by Transwell assay; type: functional, cell-based
SK-OV-3 [7] = assay: Downregulation of EMT signalling in human SK-OV-3 cells transfected with shFHL1-2 RNA assessed as N-cadherin protein expression at 10 uM by western blot analysis; type: functional, cell-based
A2780 [8] = assay: Downregulation of EMT signalling in human A2780 cells transfected with shFHL1-2 RNA assessed as vimentin protein expression at 10 uM by western blot analysis; type: functional, cell-based
A2780 [9] = assay: Downregulation of EMT signalling in human A2780 cells assessed as upregulation of E-cadherin protein expression at 10 uM by western blot analysis; type: functional, cell-based
A2780 [10] = assay: Potentiation of olaparib sensitivity in human A2780 cells assessed as downregulation of EMT signaling by measuring downregulation of N-cadherin protein expression at 10 uM in presence of olaparib by western blot analysis; type: functional, cell-based
SK-OV-3 [11] = assay: Potentiation of olaparib sensitivity in human SK-OV-3 cells transfected with shFLH1-1 RNA assessed as downregulation of EMT signaling by measuring N-cadherin protein expression at 10 uM in presence of olaparib by western blot analysis; type: functional, cell-based
SK-OV-3 [12] = assay: Potentiation of olaparib sensitivity in human SK-OV-3 cells assessed as inhibition of cell migration at 10 uM measured after 24 to 48 hrs in presence of olaparib by wound healing assay; type: functional, cell-based; conditions: time 24-48 hrs
SK-OV-3 [13] = assay: Downregulation of EMT signalling in human SK-OV-3 cells transfected with shFHL1-2 RNA assessed as vimentin protein expression at 10 uM by western blot analysis; type: functional, cell-based
SK-OV-3 [14] = assay: Inhibition of cell invasion in human SK-OV-3 cells at 10 uM measured after 48 hrs by Transwell assay; type: functional, cell-based
SK-OV-3 [15] = assay: Downregulation of EMT signalling in human SK-OV-3 cells transfected with shFHL1-1 RNA assessed as vimentin protein expression at 10 uM by western blot analysis; type: functional, cell-based
A2780 [16] = assay: Antitumor activity against human A2780 cells xenografted in BALB/c mouse assessed as decrease in tumor weight at 5 to 15 mg/kg, ip administered every other day for 2 weeks; type: functional, organism-based; conditions: dose 5-15 mg/kg
SK-OV-3 [17] = assay: Upregulation of FHL1 protein expression in human SK-OV-3 cells by western blot analysis; type: functional, cell-based; conditions: dose 5-20 µM
A2780 [18] = assay: Potentiation of olaparib-induced antitumor activity against shFHL1-1 RNA-transfected human A2780 cells xenografted in BALB/c mouse assessed as decrease in lung metastatic nodules at 15 mg/kg, ip co-administered with olaparib every other day from day 6 of tumor cell inoculation and measured on day 30 post-tumor cell inoculation by H and E staining based bright field microscopic analysis; type: functional, organism-based; conditions: time 24.0 day
SK-OV-3 [19] = assay: Potentiation of olaparib sensitivity in human SK-OV-3 cells assessed as downregulation of EMT signaling by measuring upregulation of E-cadherin protein expression at 10 uM in presence of olaparib by western blot analysis; type: functional, cell-based
A2780 [20] = assay: Potentiation of olaparib sensitivity in human A2780 cells assessed as downregulation of EMT signaling by measuring downregulation of vimentin protein expression at 10 uM in presence of olaparib by western blot analysis; type: functional, cell-based
A2780 [21] = assay: Increase in FHL1 protein stability in human A2780 cells at 10 uM measured after 6 to 24 hrs in presence of cycloheximide by CHX chase assay based western blot analysis; type: functional, cell-based; conditions: time 6-24 hrs
SK-OV-3 [22] = assay: Potentiation of olaparib sensitivity in human SK-OV-3 cells transfected with shFHL1-1 RNA assessed as inhibition of cell migration at 10 uM measured after 24 to 48 hrs in presence of olaparib by wound healing assay; type: functional, cell-based; conditions: time 24-48 hrs
SK-OV-3 [23] = assay: Potentiation of olaparib sensitivity in human SK-OV-3 cells assessed as induction of DNA damage response by measuring increase in tail moment at 10 uM measured after 48 hrs in presence of olaparib by alkaline comet assay; type: functional, cell-based
SK-OV-3 [24] = assay: Potentiation of olaparib sensitivity in human SK-OV-3 cells transfected with shFLH1-1 RNA assessed as downregulation of EMT signaling by measuring vimentin protein expression at 10 uM in presence of olaparib by western blot analysis; type: functional, cell-based
A2780 [25] = assay: Downregulation of EMT signalling in human A2780 cells transfected with shFHL1-1 RNA assessed as vimentin protein expression at 10 uM by western blot analysis; type: functional, cell-based
A2780 [26] = assay: Downregulation of EMT signalling in human A2780 cells transfected with shFHL1-1 RNA assessed as E-cadherin protein expression at 10 uM by western blot analysis; type: functional, cell-based
SK-OV-3 [27] = assay: Potentiation of olaparib sensitivity in human SK-OV-3 cells transfected with shFHL1-1 RNA assessed as inhibition of cell invasion at 10 uM measured after 48 hrs in presence of olaparib by Transwell assay; type: functional, cell-based
SK-OV-3 [28] = assay: Inhibition of cell invasion in human SK-OV-3 cells transfected with shFHL1-1 RNA at 10 uM measured after 48 hrs by Transwell assay; type: functional, cell-based
[29] = Toxicity in BALB/c mouse xenografted with human A2780 cells assessed as effect on body weight at 15 mg/kg, ip co-administered with olaparib for 2 weeks; type: organism-based; conditions: in vivo, 336 h
Mus musculus [30] = assay: Potentiation of olaparib sensitivity in BALB/c mouse xenografted with shFHL1-1 RNA-transfected human A2780 cells assessed as increase in FHL1 protein expression in tumor at 15 mg/kg, ip co-administered with olaparib for 2 weeks by immunohistochemistry; type: functional, organism-based
A2780 [31] = assay: Inhibition of cell invasion in human A2780 cells transfected with shFHL1-2 RNA at 10 uM measured after 48 hrs by Transwell assay; type: functional, cell-based
SK-OV-3 [32] = assay: Downregulation of EMT signalling in human SK-OV-3 cells assessed as upregulation of E-cadherin protein expression at 10 uM by western blot analysis; type: functional, cell-based
A2780 [33] = assay: Downregulation of EMT signalling in human A2780 cells transfected with shFHL1-2 RNA assessed as N-cadherin protein expression at 10 uM by western blot analysis; type: functional, cell-based

CC[C@]12C=CCN3CC[C@]4(C(=C(C(=O)OC)C1)Nc1ccccc14)[C@@H]32 [TABERSONINE]
Activity (A2780 [1]): inactive | Activity (A2780 [2]): Dose-Dependent Effect | Activity (SK-OV-3 [3]): Active | Activity (Mus musculus [4]): Active | inhibition (A2780 [5]): Active | Activity (A2780 [6]): inactive | inhibition (SK-OV-3 [7]): inactive | inhibition (A2780 [8]): inactive | inhibition (A2780 [9]): Active | Activity (A2780 [10]): Active | Activity (SK-OV-3 [11]): inactive | Activity (SK-OV-3 [12]): Active | inhibition (SK-OV-3 [13]): inactive | inhibition (SK-OV-3 [14]): Active | inhibition (SK-OV-3 [15]): inactive | Activity (A2780 [16]): Active | Activity (SK-OV-3 [17]): Dose-Dependent Effect | Activity (A2780 [18]): inactive | Activity (SK-OV-3 [19]): Active | Activity (A2780 [20]): Active | Activity (A2780 [21]): Active | Activity (SK-OV-3 [22]): inactive | Activity (SK-OV-3 [23]): Active | Activity (SK-OV-3 [24]): inactive | inhibition (A2780 [25]): inactive | inhibition (A2780 [26]): inactive | Activity (SK-OV-3 [27]): inactive | inhibition (SK-OV-3 [28]): inactive | Activity [29]: Non-Toxic | Activity (Mus musculus [30]): inactive | inhibition (A2780 [31]): inactive | inhibition (SK-OV-3 [32]): Active | inhibition (A2780 [33]): inactive
